Measured values from ChEMBL document CHEMBL1649106, “Structures of 1-Deoxy-D-Xylulose-5-Phosphate Reductoisomerase/Lipophilic Phosphonate Complexes” (ACS Med Chem Lett, 2011).

How the values were obtained:
[1] = Half life in plasma; type: ADME, cell-free
Plasmodium falciparum = assay: Antimalarial activity against Plasmodium falciparum; type: functional, organism-based
[2] = target: T1, 1-deoxy-D-xylulose 5-phosphate reductoisomerase (Escherichia coli K-12, UniProt P45568); assay: Inhibition of Escherichia coli DXR
T1 sequence (P45568 whole entry): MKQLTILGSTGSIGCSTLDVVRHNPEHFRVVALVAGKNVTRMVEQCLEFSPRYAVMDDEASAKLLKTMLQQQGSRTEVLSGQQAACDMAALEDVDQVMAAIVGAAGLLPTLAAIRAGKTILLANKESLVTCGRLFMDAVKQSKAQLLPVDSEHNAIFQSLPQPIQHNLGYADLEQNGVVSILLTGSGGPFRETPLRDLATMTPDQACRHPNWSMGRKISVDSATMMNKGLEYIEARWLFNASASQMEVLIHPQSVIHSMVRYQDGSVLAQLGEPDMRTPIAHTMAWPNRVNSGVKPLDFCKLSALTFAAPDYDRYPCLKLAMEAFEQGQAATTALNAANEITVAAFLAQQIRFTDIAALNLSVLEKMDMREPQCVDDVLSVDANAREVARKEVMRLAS

Row | Compound | half-life [1] | EC50 (Plasmodium falciparum) | IC50 [2]
1 | O=CN(O)CCCP(=O)(O)O [FOSMIDOMYCIN] | 1 h | 1.1 µM | –
2 | COc1ccc([C@@H](CCN(O)C(C)=O)P(=O)(O)O)cc1 | – | 0.25 µM | 0.459 µM
3 | CC(=O)N(O)CC[C@H](c1ccc(Cl)c(Cl)c1)P(=O)(O)O | – | 0.25 µM | 0.119 µM
4 | O=CN(O)CCCc1ccncc1 | – | – | > 100 µM
5 | O=P(O)(O)Cc1cccnc1 | – | – | 10 µM
6 | O=c1ccc(-c2ccccc2)cn1O [1-HYDROXY-5-PHENYLPYRIDIN-2(1H)-ONE] | – | – | 1.4 µM
7 | CC(=O)N(O)CC[C@H](c1ccc(C)cc1)P(=O)(O)O | – | 0.25 µM | 0.396 µM
8 | O=CN(O)CCCc1ccc(Cl)c(Cl)c1 | – | – | > 100 µM
9 | CC(=O)N(O)CC[C@H](c1ccccc1)P(=O)(O)O | – | 0.25 µM | –
10 | O=P(O)(O)Cc1ccncc1 | – | – | 7.1 µM
11 | CC(=O)N(O)CC[C@H](c1ccc(Cl)cc1)P(=O)(O)O | – | 0.25 µM | 0.099 µM
12 | O=P(O)(O)Cc1ccc(Cl)c(Cl)c1 | – | – | > 100 µM
